Results: patent US7119115B2, “Indazole or indole derivatives, and use thereof in human medicine and more particularly in oncology” (Aventis Pharma S.A., priority 2001, dated 2006)

Target: T1, Tubulin (Sus scrofa, UniProt P02550+P02554)
T1 construct: Tubulin is purified from pig brain according to published methods; from tissue; host or cells: pig brain
Assay: Evaluation of the inhibition of tubulin polymerization (turbidimetry at 350 nm)
Type: biochemical
Settings: concentration that inhibits the rate of polymerization by 50%; pig brain tubulin 10 μM
Experimental: Briefly, the brains are ground and centrifuged in an extraction buffer. The tubulin contained in the supernatant of the extract undergoes two successive cycles of polymerization at 37° C. and depolymerization at 4° C., before being separated from the MAPs (Microtubule Associated Proteins) by chromatography on a phosphocellulose P11 column (Whatman). […] It is stored in a buffer known as RB/2 30% glycerol, the composition of which is 50 mM MES-NaOH [2-(N-morpholino)ethanesulphonic acid], pH 6.8; 0.25 mM MgCl2; 0.5 mM EGTA; 30% glycerol (v/v), 0.2 mM GTP (guanosine-5′-triphosphate).
The polymerization of tubulin to microtubules is monitored by turbidimetry as follows: the tubulin is adjusted to a concentration of 10 μM (1 mg/ml) in RB/2 30% glycerol buffer to which 1 mM GTP and 6 mM MgCl2 are added. […] The increase in the turbidity of the solution is monitored at 350 nm.
The products are dissolved at 10 mM in DMSO and added at variable concentrations (0.5 to 10 μM) to the tubulin solution before polymerization.

T1 sequence (P02550 whole entry): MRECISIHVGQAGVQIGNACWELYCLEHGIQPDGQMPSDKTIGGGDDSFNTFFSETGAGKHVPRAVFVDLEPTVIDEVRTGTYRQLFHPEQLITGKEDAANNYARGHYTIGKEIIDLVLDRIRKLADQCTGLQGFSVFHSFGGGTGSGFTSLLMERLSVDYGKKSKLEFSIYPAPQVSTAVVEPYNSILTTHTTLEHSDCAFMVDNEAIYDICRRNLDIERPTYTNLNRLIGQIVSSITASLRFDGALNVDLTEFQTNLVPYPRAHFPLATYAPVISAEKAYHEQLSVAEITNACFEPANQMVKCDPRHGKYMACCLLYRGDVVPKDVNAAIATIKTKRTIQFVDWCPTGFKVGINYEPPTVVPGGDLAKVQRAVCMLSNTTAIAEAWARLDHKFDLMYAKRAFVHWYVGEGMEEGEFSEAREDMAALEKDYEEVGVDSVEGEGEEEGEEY
T1 sequence (P02554 whole entry): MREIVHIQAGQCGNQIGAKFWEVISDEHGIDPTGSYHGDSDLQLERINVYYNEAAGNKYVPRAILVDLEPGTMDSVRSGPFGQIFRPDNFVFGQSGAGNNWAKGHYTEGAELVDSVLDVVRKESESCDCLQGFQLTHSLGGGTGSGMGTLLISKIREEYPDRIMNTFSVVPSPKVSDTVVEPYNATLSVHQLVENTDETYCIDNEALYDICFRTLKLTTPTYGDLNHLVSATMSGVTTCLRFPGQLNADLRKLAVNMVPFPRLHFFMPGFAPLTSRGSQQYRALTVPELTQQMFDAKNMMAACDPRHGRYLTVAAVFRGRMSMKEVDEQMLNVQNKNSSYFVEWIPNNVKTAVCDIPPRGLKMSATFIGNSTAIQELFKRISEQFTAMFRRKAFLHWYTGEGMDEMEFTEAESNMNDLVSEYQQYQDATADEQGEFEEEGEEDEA

Work on CCOC(=O)c1n[nH]c2c1C=CC(c1ccccc1)(c1ccccc1)C2C (stereo not drawn) [Example 13, Ethyl 7-methyl-6,6-diphenyl-6,7-dihydro-1H-indazole-3-carboxylate] yielded an IC50 of 1.5 µM.
In the case of CCOC(=O)c1n[nH]c2c1C=CC(c1ccccc1)(c1ccc(OC)c(OC)c1)C2 (racemic) [Example 10-2, Ethyl 6-(R,S)-6-(3,4-dimethoxyphenyl)-6-phenyl-6,7-dihydro-1H-indazole-3-carboxylate], the IC50 is reported as 4.5 µM.
O=[N+]([O-])c1ccc(CO/N=C(/c2n[nH]c3c2C=CC(c2ccccc2)(c2ccccc2)C3)C2CC2)cc1 [Example 6-9B, cyclopropyl(6,6-diphenyl-6,7-dihydro-1H-indazol-3-yl)methanone O-(4-nitrobenzyl)oxime] was tested, and the IC50 was 2.5 µM.
O/N=C(/c1n[nH]c2c1C=CC(c1ccccc1)(c1ccc(F)cc1)C2)C1CC1 (single isomer, unassigned) [Example 10-5D, cyclopropyl[6-(4-fluorophenyl)-6-phenyl-6,7-dihydro-1H-indazol-3-yl]methanone oxime] gave an IC50 of 1.5 µM.
Compound ON=C(c1n[nH]c2c1C=CC(c1ccccc1)(c1ccccc1)C2)C1CC1 (single isomer, unassigned) [Example 6-1B, cyclopropyl(6,6-diphenyl-6,7-dihydro-1H-indazol-3-yl)methanone oxime] has an IC50 of 3 µM.
Compound CCOC(=O)c1n[nH]c2c1C=CC(c1ccc(OC)cc1)(c1ccc(OC)cc1)C2 [Example 10-1, Ethyl 6,6-bis(4-methoxyphenyl)-6,7-dihydro-1H-indazole-3-carboxylate] has an IC50 of 15 to 20 µM.
O=C(c1n[nH]c2c1C=CC(c1ccccc1)(c1ccccc1)C2)N1CC1 [Example 3-4, Aziridin-1-yl(6,6-diphenyl-6,7-dihydro-1H-indazol-3-yl)methanone] showed an IC50 of 4.5 µM.
O/N=C(\c1n[nH]c2c1C=CC(c1ccccc1)(c1ccc(F)cc1)C2)C1CC1 (single isomer, unassigned) [Example 10-5E, cyclopropyl[6-(4-fluorophenyl)-6-phenyl-6,7-dihydro-1H-indazol-3-yl]methanone oxime] showed an IC50 of 6 µM.
Compound COC(=O)c1[nH]nc2c1C=CC(c1ccccc1)(c1ccccc1)C2 [Example 2-2, Methyl 6,6-diphenyl-6,7-dihydro-2H-indazole-3-carboxylate] has an IC50 of 1.25 µM.
Work on ON=C(c1n[nH]c2c1C=CC(c1ccccc1)(c1ccc(F)cc1)C2)C1CC1 (single isomer, unassigned) [Example 10-5B] yielded an IC50 of 6 µM.
C=CCO/N=C(/c1n[nH]c2c1C=CC(c1ccccc1)(c1ccccc1)C2)C1CC1 [Example 6-6B, cyclopropyl(6,6-diphenyl-6,7-dihydro-1H-indazol-3-yl)methanone O-allyloxime] gave an IC50 of 1.2 µM.
COCCO/N=C(/c1n[nH]c2c1C=CC(c1ccccc1)(c1ccccc1)C2)C1CC1 [Example 6-7B, cyclopropyl(6,6-diphenyl-6,7-dihydro-1H-indazol-3-yl)methanone O-(2-methoxyethyl)oxime] showed an IC50 of 6 µM.
Compound O=[N+]([O-])c1ccc(CO/N=C(\c2n[nH]c3c2C=CC(c2ccccc2)(c2ccccc2)C3)C2CC2)cc1 [Example 6-9A, cyclopropyl(6,6-diphenyl-6,7-dihydro-1H-indazol-3-yl)methanone O-(4-nitrobenzyl)oxime] has an IC50 of 1.5 µM.
CCOC(=O)c1n[nH]c2c1C=CC(C)(c1ccccc1)C2 (single isomer, unassigned) [Example 9-2, ethyl 6-methyl-6-phenyl-6,7-dihydro-1H-indazole-3-carboxylate] showed an IC50 of 15 µM.
C1=CC(c2ccccc2)(c2ccccc2)Cc2[nH]nc(-c3ccccc3)c21 [Example 8-2, 3,6,6-Triphenyl-6,7-dihydro-1H-indazole] was tested, and the IC50 was 1 µM.
CCOC(=O)c1n[nH]c2c1C=CC(C)(c1ccccc1)C2 (racemic) [Example 9-1, Ethyl 6-(R,S)-6-methyl-6-phenyl-6,7-dihydro-1H-indazole-3-carboxylate] showed an IC50 of 18 µM.
CC(C)OC(=O)c1[nH]nc2c1C=CC(c1ccccc1)(c1ccccc1)C2 [Example 2-1, Isopropyl 6,6-diphenyl-6,7-dihydro-2H-indazole-3-carboxylate] was tested, and the IC50 was 3.7 µM.
O=C(c1n[nH]c2c1C=CC(c1ccccc1)(c1ccc(F)cc1)C2)C1CC1 (single isomer, unassigned) [Example 10-4B, cyclopropyl[6-(4-fluorophenyl)-6-phenyl-6,7-dihydro-1H-indazol-3-yl]methanone] gave an IC50 of 0.8 µM.
In the case of FCCO/N=C(/c1n[nH]c2c1C=CC(c1ccccc1)(c1ccccc1)C2)C1CC1 [Example 6-11B, cyclopropyl(6,6-diphenyl-6,7-dihydro-1H-indazol-3-yl)methanone O-(2-fluoroethyl)oxime], the IC50 is reported as 1.3 µM.
For Cc1ccc(S(=O)(=O)n2nc(N)c3c2CC(c2ccccc2)(c2ccccc2)C=C3)cc1 [Example 7-1, 6,6-Diphenyl-1-(4-toluenesulphonyl)-6,7-dihydro-1H-indazol-3-ylamine], the IC50 was 6 µM.
C1=CC(c2ccccc2)(c2ccccc2)Cc2[nH]nc(/C(=N\OCc3ccccc3)C3CC3)c21 [Example 6-8A, cyclopropyl(6,6-diphenyl-6,7-dihydro-1H-indazol-3-yl)methanone O-benzyloxime] gave an IC50 of 1.3 µM.
With C=CCON=C(c1n[nH]c2c1C=CC(c1ccccc1)(c1ccccc1)C2)C1CCC1 (single isomer, unassigned) [Example 6-5, Cyclobutyl(6,6-diphenyl-6,7-dihydro-1H-indazol-3-yl)methanone O-allyloxime] the IC50 was 3 µM.
C1=CC(c2ccccc2)(c2ccccc2)Cc2[nH]nc(-c3cccnc3)c21 [Example 8-3, 6,6-Diphenyl-3-pyrid-3-yl-6,7-dihydro-1H-indazole] gave an IC50 of 6 µM.
C1=CC(c2ccccc2)(c2ccccc2)Cc2[nH]nc(-c3ccsc3)c21 [Example 8-4, 6,6-Diphenyl-3-thiophen-3-yl-6,7-dihydro-1H-indazole] was tested, and the IC50 was 1.2 µM.
For CN(C)CCO/N=C(\c1n[nH]c2c1C=CC(c1ccccc1)(c1ccccc1)C2)C1CC1 [Example 6-10A, cyclopropyl(6,6-diphenyl-6,7-dihydro-1H-indazol-3-yl)methanone O-(2-dimethylaminoethyl)oxime], the IC50 was 4.5 µM.
For CCOC(=O)c1[nH]cc2c1C=CC(c1ccccc1)(c1ccccc1)C2 [Example 11, Ethyl 5,5-diphenyl-4,5-dihydro-2H-isoindole-1-carboxylate], the IC50 was 6.5 µM.
Work on N#Cc1n[nH]c2c1C=CC(c1ccccc1)(c1ccccc1)C2 [Example 4, 6,6-Diphenyl-6,7-dihydro-1H-indazole-3-carbonitrile] yielded an IC50 of 23 µM.
O=C(c1n[nH]c2c1C=CC(c1ccccc1)(c1ccc(F)cc1)C2)C1CC1 (single isomer, unassigned) [Example 10-4C, cyclopropyl[6-(4-fluorophenyl)-6-phenyl-6,7-dihydro-1H-indazol-3-yl]methanone] showed an IC50 of 1.5 µM.
COCCO/N=C(\c1n[nH]c2c1C=CC(c1ccccc1)(c1ccccc1)C2)C1CC1 [Example 6-7A, cyclopropyl(6,6-diphenyl-6,7-dihydro-1H-indazol-3-yl)methanone O-(2-methoxyethyl)oxime] gave an IC50 of 1.8 µM.
Compound C1=CC(c2ccccc2)(c2ccccc2)Cc2[nH]nc(/C(=N/OCc3ccccc3)C3CC3)c21 [Example 6-8B, cyclopropyl(6,6-diphenyl-6,7-dihydro-1H-indazol-3-yl)methanone O-benzyloxime] has an IC50 of 10 µM.
